Measurements reported in patent US10961229B2, “Selective NR2B antagonists” (Bristol-Myers Squibb Company, priority 2015, dated 2021).
Where two headings read alike, the source gives them in different places.

Experiments:
[1] = biological target: T1, NR2B-subtype receptors (Mus musculus, UniProt P35438+Q01097); test: Ex vivo occupancy assay; assay type: in vivo; conditions: for receptor occupancy at 3 mg/kg: mouse, iv
T1 construct: brain-resident NR2B-subtype receptors; from tissue; host or cells: forebrain membrane homogenates of dosed CD-1 mice
Protocol: Ex vivo occupancy assay. […] 7-9 weeks old male CD-1 mice were dosed intravenously in a vehicle consisting of 10% dimethylacetamide, 40% PEG-400, 30% hydroxypropyl betacyclodextrin, and 30% water with experimental compounds and the forebrains were harvested 15 minutes post-dosing by decapitation. The brain samples were immediately snap-frozen and stored at −80° C. On the following day, the dosed brain samples were thawed on ice for 15-20 minutes followed by homogenization using Polytron for 10 seconds in cold homogenization buffer composed of 50 mM KH2PO4 (pH adjusted to 7.4 with KOH), 1 mM EDTA, 0.005% Triton X 100 and protease inhibitor cocktail (Sigma Aldrich). The crude homogenates were further homogenized using a Dounce homogenizer and the homogenized membrane aliquots from all animals were flash-frozen and stored at −80° C. until further use. The whole homogenization process was performed on ice.
For determining occupancy, the membrane homogenates were first thawed on ice and then needle-homogenized using a 25 gauge needle. The homogenized membrane (6.4 mg/ml) was added to a 96-well plate followed by addition of ^3H Ro 25-6981 (6 nM). The reaction mixture was incubated for 5 minutes on a shaker at 4° C. and then harvested onto GF/B filter plates (treated with 0.5% PEI for 1 hr at room temperature). The filter plates were dried at 50° C. for 20 mins, incubated with microscint 20 for 10 minutes and read on TopCount (Perkin Elmer). Each dose or compound group consisted of 4-5 animals. The control group of animals was dosed with vehicle alone. Membrane from each animal was added in triplicates to the assay plate. Non-specific binding was determined using 10 μM Ro 25-6981 added to the wells containing membrane homogenates from vehicle-dosed animals. Specific counts/minute was converted to % occupancy at each dose of a compound for each animal using the following equation:
(§1) [formula] […] Drug levels were determined by mass spectroscopy in the usual manner. Drug levels in the blood plasma were 1018 nM in at this dose, and drug levels in the homogonized brain tissue were 1342 nM.

[2] = system: mice; test: Mouse Forced swim test (mFST); assay type: in vivo; conditions: 3 mg/Kg i.v., 15 min before swim session, 6 min test
Protocol: Mouse Forced swim test (mFST). Forced Swim Test (FST) is an animal model used to assess antidepressant compounds in preclinical studies. The FST was performed similar to the method of Porsolt et al. with modifications (Porsolt R D, Bertin A, Jalfre M. Behavioral despair in mice: a primary screening test for antidepressants. Arch Int Pharmacodyn Thér 1977; 229:327-36). In this paradigm, mice are forced to swim in an inescapable cylinder filled with water. Under these conditions, mice will initially try to escape and eventually develop immobility behavior; this behavior is interpreted as a passive stress-coping strategy or depression-like behavior. […] The duration of immobility was evaluated during the total 6 min of the test and expressed as duration (sec) of immobility. […] All testing sessions were recorded with a video camera (Sony Handicam, Model: DCR-HC38E; PAL) and scoring was done using the Forced Swim Scan, Version 2.0 software (Clever Systems Inc., Reston, Va., USA; see Hayashi E, Shimamura M, Kuratani K, Kinoshita M, Hara H. Automated experimental system capturing three behavioral components during murine forced swim test. Life Sci. 2011 February 28; 88 (9-10): 411-7 and Yuan P, Tragon T, Xia M, Leclair C A, Skoumbourdis A P, Zheng W, Thomas C J, Huang R, Austin C P, Chen G, Guitart X. Phosphodiesterase 4 inhibitors enhance sexual pleasure-seeking activity in rodents. […]

[3] = Drug levels in blood plasma and homogenized brain tissue by mass spectroscopy; assay type: in vivo, mouse; conditions: intravenous; for concentration at 15 min: CD-1, mouse, 3 mg/Kg i.v. dose, ex vivo occupancy study, mice; for concentration at 21 min: 3 mg/Kg i.v., end of mouse forced swim test
Protocol: as §1
Mouse Forced swim test (mFST). Forced Swim Test (FST) is an animal model used to assess antidepressant compounds in preclinical studies. The FST was performed similar to the method of Porsolt et al. with modifications (Porsolt R D, Bertin A, Jalfre M. Behavioral despair in mice: a primary screening test for antidepressants. Arch Int Pharmacodyn Thér 1977; 229:327-36). In this paradigm, mice are forced to swim in an inescapable cylinder filled with water. Under these conditions, mice will initially try to escape and eventually develop immobility behavior; this behavior is interpreted as a passive stress-coping strategy or depression-like behavior. Swim tanks were positioned inside a box made of plastic. Each tank was separated from each other by opaque plastic sheets to the height of cylinders. Three mice were subjected to test at a time. Swim sessions were conducted for 6 min by placing mice in individual glass cylinders (46 cm height×20 cm diameter) containing water (20-cm deep, maintained at 24-25° C.). […] The mouse was judged to be immobile whenever it remained floating passively without struggling in the water and only making those movements necessary to keep its nose/head above the water and to keep it afloat. The duration of immobility was evaluated during the total 6 min of the test and expressed as duration (sec) of immobility. Each mouse was tested only once. At the end of each session, mice were dried with a dry cloth and returned to their home cage placed on a thermal blanket to prevent hypothermia. Water was replaced after each trial. All testing sessions were recorded with a video camera (Sony Handicam, Model: DCR-HC38E; PAL) and scoring was done using the Forced Swim Scan, Version 2.0 software (Clever Systems Inc., Reston, Va., USA; see Hayashi E, Shimamura M, Kuratani K, Kinoshita M, Hara H. Automated experimental system capturing three behavioral components during murine forced swim test. Life Sci. 2011 February 28; 88 (9-10): 411-7 and Yuan P, Tragon T, Xia M, Leclair C A, Skoumbourdis A P, Zheng W, Thomas C J, Huang R, Austin C P, Chen G, Guitart X. Phosphodiesterase 4 inhibitors enhance sexual pleasure-seeking activity in rodents. Pharmacol Biochem Behav. 2011; 98(3):349-55). For NCE testing: Test compound was administered in mice 15 min before swim session by i.v. route and immobility time was recorded for next 6 min. […] The NR2B receptor occupancy was determined as reported above and was determined to be 67%.

[4] = biological target: T2, hERG channels (Homo sapiens, UniProt Q12809); test: hERG electrophysiology assay (patch clamp); assay type: cell-based; conditions: HEK 293 cells stably expressing hERG channels, tail current
T2 construct: expressed in transfected cells
Protocol: hERG electrophysiology assay. The experimental compounds were assessed for hERG activity on HEK 293 cells stably expressing hERG channels using patch clamp technique. Coverslips plated with hERG expressing cells were placed in the experimental chamber and were perfused with a solution composed of (in mM): 140 NaCl, 4 KCl, 1.8 CaCl2, 1 MgCl2, 10 Glucose, 10 HEPES (pH 7.4, NaOH) at room temperature. Borosilicate patch pipettes had tip resistances of 2-4 Mohms when filled with an internal solution containing: 130 KCl, 1 MgCl2, 1 CaCl2, 10 EGTA, 10 HEPES, 5 ATP-K2 (pH 7.2, KOH). The cells were clamped at −80 mV in whole cell configuration using an Axopatch 200B (Axon instruments, Union City, Calif.) patch clamp amplifier controlled by pClamp (Axon instruments) software. […] First, tail currents were recorded in presence of extracellular solution alone (control) and subsequently, in extracellular solution containing increasing compound concentrations. […] The percentage inhibition at each concentration was calculated as reduction in peak tail current with respect to the peak tail current recorded in the presence of control solution. […]

[5] = biological target: T3, NR2B-subtype NMDA receptors (Rattus norvegicus, UniProt P35439+Q00960); test: Radioligand binding assay (3H Ro 25-6981 competition); conditions: rat forebrain membranes, 3H Ro 25-6981 (4 nM)
T3 construct: from tissue; host or cells: rat forebrain membrane homogenate (Sprague Dawley, Harlan)
Protocol: Radioligand binding assay. Binding experiments to determine binding to NR2B-subtype NMDA receptors were performed on forebrains of 8-10 weeks old male Sprague Dawley rats (Harlan, Netherlands) using ^3H Ro 25-6981 (Mutel V; Buchy D; Klingelschmidt A; Messer J; Bleuel Z; Kemp J A; Richards J G. Journal of Neurochemistry, 1998, 70(5):2147-2155. Rats were decapitated without anesthesia using a Guillotine (approved by animal ethics committee) and the harvested brains were snap-frozen and stored at −80° C. for 3-6 months for membrane preparation.
For membrane preparation, rat forebrains were thawed on ice for 20 minutes in homogenization buffer composed of 50 mM KH2PO4 (pH adjusted to 7.4 with KOH), 1 mM EDTA, 0.005% Triton X 100 and protease inhibitor cocktail (Sigma Aldrich). Thawed brains were homogenized using a Dounce homogenizer and centrifuged at 48000×g for 20 min. The pellet was resuspended in cold buffer and homogenized again using a Dounce homogenizer. Subsequently, the homogenate was aliquoted, snap-frozen and stored at −80° C. for not more than 3-4 months.
To perform the competition binding assay, thawed membrane homogenate was added to each well of a 96-well plate (20 μg/well). […] The filter plates were dried at 50° C. for 20 mins, incubated with microscint 20 for 10 minutes and finally, the counts were read on TopCount (Perkin Elmer).

T1 sequence (Q01097 27-1482, other chains not shown): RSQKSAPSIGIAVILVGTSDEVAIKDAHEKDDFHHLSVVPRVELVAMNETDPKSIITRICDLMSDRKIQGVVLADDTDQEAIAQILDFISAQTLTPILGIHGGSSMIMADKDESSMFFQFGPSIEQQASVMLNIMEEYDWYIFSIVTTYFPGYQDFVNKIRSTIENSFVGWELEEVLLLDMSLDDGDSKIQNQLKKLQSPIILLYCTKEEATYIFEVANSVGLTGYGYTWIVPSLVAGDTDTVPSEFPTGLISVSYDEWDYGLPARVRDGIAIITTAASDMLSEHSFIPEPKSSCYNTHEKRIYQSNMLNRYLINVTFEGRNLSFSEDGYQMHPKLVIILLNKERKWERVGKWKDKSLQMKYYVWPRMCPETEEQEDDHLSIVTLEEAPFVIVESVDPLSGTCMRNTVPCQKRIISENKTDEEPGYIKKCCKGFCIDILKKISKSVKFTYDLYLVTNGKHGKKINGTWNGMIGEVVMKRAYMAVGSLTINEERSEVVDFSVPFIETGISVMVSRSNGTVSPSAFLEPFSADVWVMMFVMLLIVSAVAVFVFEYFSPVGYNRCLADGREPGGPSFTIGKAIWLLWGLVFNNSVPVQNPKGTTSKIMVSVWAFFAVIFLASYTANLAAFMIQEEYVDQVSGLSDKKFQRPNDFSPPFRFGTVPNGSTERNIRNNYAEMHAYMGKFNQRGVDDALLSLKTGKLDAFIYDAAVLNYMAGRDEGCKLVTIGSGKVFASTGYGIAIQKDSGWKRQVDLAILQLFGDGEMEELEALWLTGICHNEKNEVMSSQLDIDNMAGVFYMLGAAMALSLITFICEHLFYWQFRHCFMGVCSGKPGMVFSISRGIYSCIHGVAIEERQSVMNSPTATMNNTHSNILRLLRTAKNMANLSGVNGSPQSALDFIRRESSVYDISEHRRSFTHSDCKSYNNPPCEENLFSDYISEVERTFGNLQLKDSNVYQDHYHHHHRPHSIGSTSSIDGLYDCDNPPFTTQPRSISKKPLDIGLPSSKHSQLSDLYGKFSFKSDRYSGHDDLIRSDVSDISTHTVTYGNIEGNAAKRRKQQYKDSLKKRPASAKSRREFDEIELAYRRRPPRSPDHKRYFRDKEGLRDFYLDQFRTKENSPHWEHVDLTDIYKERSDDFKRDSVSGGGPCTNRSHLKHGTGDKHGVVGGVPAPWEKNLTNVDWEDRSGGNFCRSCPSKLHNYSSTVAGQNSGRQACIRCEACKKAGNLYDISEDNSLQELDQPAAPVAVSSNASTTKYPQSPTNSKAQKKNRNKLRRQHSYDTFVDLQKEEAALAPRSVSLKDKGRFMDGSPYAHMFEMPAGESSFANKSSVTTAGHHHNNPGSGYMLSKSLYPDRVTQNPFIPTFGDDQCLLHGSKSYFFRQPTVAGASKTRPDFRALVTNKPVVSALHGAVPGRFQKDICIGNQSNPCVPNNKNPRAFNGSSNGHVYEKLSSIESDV
T2 sequence (Q12809 whole entry): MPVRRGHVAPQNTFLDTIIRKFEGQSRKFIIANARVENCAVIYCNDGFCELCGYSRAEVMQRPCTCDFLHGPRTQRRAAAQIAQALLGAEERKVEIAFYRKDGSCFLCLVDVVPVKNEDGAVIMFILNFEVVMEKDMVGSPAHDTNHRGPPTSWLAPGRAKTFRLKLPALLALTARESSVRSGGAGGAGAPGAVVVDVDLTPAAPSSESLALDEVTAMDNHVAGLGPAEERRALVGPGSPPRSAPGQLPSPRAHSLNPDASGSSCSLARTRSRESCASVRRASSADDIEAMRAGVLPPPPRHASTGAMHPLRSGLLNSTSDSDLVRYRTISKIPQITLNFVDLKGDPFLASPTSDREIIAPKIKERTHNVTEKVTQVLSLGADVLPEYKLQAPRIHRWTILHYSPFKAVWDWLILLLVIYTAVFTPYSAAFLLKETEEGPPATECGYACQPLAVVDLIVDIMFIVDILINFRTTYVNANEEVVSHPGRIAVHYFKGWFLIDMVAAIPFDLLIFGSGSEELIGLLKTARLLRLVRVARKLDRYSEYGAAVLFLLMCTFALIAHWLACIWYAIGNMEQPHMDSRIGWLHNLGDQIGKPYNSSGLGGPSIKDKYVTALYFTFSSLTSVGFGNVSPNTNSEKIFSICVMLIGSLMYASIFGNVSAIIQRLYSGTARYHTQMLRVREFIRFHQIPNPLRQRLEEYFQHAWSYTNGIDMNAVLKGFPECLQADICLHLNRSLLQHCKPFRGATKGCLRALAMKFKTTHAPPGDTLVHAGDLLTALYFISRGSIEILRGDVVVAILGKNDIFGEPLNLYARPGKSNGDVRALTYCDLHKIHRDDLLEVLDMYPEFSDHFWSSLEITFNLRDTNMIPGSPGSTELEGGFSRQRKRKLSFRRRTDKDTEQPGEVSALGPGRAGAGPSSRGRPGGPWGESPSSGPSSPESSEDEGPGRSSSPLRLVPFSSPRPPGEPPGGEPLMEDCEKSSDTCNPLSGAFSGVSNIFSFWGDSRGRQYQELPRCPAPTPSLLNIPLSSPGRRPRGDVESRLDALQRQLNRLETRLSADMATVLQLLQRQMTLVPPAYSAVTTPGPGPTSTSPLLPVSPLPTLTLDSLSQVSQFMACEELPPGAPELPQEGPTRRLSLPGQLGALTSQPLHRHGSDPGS
T3 sequence (Q00960 27-1482, other chains not shown): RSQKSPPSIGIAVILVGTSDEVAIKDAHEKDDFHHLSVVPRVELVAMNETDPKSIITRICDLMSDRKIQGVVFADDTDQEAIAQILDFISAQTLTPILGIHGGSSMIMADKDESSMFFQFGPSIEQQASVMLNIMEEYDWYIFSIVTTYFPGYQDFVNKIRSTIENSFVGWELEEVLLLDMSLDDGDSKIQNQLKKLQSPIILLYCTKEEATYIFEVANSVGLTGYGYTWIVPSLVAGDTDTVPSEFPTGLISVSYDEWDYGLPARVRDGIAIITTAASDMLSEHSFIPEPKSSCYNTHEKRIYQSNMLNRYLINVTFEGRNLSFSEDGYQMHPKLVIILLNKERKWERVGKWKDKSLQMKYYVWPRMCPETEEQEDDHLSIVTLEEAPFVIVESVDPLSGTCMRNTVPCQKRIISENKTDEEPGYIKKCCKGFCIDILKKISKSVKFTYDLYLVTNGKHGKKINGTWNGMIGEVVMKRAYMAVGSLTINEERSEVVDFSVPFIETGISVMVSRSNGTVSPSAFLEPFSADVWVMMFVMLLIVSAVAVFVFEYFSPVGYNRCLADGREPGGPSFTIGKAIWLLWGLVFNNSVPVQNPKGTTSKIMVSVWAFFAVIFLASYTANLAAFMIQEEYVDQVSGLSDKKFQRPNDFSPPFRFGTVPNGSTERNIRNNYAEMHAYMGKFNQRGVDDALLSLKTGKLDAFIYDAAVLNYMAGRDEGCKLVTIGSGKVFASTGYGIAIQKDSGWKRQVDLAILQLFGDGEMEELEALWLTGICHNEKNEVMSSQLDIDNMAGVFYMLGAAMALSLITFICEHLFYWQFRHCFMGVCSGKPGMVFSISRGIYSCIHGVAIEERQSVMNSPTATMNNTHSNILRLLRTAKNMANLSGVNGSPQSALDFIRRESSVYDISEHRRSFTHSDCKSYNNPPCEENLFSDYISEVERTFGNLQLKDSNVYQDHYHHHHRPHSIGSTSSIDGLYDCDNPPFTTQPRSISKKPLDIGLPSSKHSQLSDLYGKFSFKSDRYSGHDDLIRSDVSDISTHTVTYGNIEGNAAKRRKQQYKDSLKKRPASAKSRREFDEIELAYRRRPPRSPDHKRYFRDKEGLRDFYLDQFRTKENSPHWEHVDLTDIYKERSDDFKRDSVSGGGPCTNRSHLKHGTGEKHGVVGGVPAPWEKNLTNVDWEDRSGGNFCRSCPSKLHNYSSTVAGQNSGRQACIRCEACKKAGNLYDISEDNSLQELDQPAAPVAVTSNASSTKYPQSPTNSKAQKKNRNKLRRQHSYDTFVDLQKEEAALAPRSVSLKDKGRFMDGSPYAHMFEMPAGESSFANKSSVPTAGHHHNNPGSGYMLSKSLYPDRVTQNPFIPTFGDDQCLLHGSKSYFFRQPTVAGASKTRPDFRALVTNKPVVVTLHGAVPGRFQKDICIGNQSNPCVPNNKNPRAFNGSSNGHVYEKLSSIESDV

Row | SMILES | occupancy of brain-resident NR2B-subtype receptors (in words) ([1]; animals after dosing) | immobility time [2] | receptor occupancy at 3 mg/kg ([1]; 3 mg/Kg i.v. dose, CD-1 mice, forebrains harvested 15 minutes post-dosing) [%] | receptor occupancy at 3 mg/kg ([1]; 3 mg/Kg i.v., mice of the forced swim test) [%] | concentration at 15 min ([3]; brain homogenate, read-out: drug levels in the homogonized brain tissue) [nM] | concentration at 15 min ([3]; plasma, read-out: Drug levels in the blood plasma) [nM] | concentration at 21 min ([3]; brain, read-out: Drug levels in the brain) [nM] | concentration at 21 min ([3]; plasma, read-out: Drug levels in the plasma) [nM] | IC50 [4] [µM] | Ki [5] [µM]
1 | O=C1C(N2CCN(c3ncc(O)cn3)CC2)CCN1c1ccc(Cl)c(F)c1 (racemic) [Example 1, 1-(4-chloro-3-fluorophenyl)-3-(4-(5-hydroxypyrimidin-2-yl)piperazin-1-yl)pyrrolidin-2-one] | occupies brain-resident NR2B-subtype receptors |  |  |  |  |  |  |  |  | 
2 | Cc1ccc(N2CCC(N3CCN(c4ccc(O)cn4)CC3)C2=O)cc1F (single isomer, unassigned) [Example 14 P1, 1-(3-fluoro-4-methylphenyl)-3-(4-(5-hydroxypyridin-2-yl)piperazin-1-yl)pyrrolidin-2-one] |  | statistically significant decrease | 86 | 67 | 1340 | 1020 | 410 | 314 | 8.9 | 0.004
